From paper PMC11971462, “Generation and validation of a novel multitarget small molecule in glioblastoma” (Cell Death & Disease, 2025)

Tested on: GNS166 cells
Test: Label-free proteomics differential expression
Type: cell-based, human
Protocol: Proteomic studies were performed by the Proteomics Facility of the CIC bioGUNE by label-free relative quantification on nLC MS/MS. […] In both approaches, the top 20 enriched terms were plotted and the pathways were clustered using divisive hierarchical clustering based on pairwise Jaccard distances.

[1] = label-free proteomics, sheet DDI Prot

C#CCN(Cc1cc2cc(OCCCN3CCCCC3)ccc2n1S(=O)(=O)c1ccccc1)C(=O)CCCCCCC(=O)NO [DDI]
Direction of BIEA_HUMAN (P53004, GN=BLVRA) protein [1]: Up | Direction of CASP3_HUMAN (P42574, GN=CASP3) protein [1]: Up | Direction of COEA1_HUMAN (Q05707, GN=COL14A1) protein [1]: Up | Direction of GSH1_HUMAN (P48506, GN=GCLC) protein [1]: Up | Direction of LKHA4_HUMAN (P09960, GN=LTA4H) protein [1]: Up | Direction of NDUAC_HUMAN (Q9UI09, GN=NDUFA12) protein [1]: Up | Direction of PGPS1_HUMAN (Q32NB8, GN=PGS1) protein [1]: Up | Direction of PTSS1_HUMAN (P48651, GN=PTDSS1) protein [1]: Up | Direction of RETST_HUMAN (Q6NUM9, GN=RETSAT) protein [1]: Up | Direction of WDR47_HUMAN (O94967, GN=WDR47) protein [1]: Up | Direction of YIPF5_HUMAN (Q969M3, GN=YIPF5) protein [1]: Up | LogFC of PGPS1_HUMAN (Q32NB8, GN=PGS1) protein (label-free proteomics, sheet DDI Prot, p value 0.0469656): 1.405 | LogFC of BIEA_HUMAN (P53004, GN=BLVRA) protein (label-free proteomics, sheet DDI Prot, p value 0.0475587): 0.7997 | LogFC of GSH1_HUMAN (P48506, GN=GCLC) protein (label-free proteomics, sheet DDI Prot, p value 0.0480187): 1.55 | LogFC of WDR47_HUMAN (O94967, GN=WDR47) protein (label-free proteomics, sheet DDI Prot, p value 0.0482259): 1.18 | LogFC of LKHA4_HUMAN (P09960, GN=LTA4H) protein (label-free proteomics, sheet DDI Prot, p value 0.0482636): 0.5863 | LogFC of CASP3_HUMAN (P42574, GN=CASP3) protein (label-free proteomics, sheet DDI Prot, p value 0.0487326): 0.743 | LogFC of YIPF5_HUMAN (Q969M3, GN=YIPF5) protein (label-free proteomics, sheet DDI Prot, p value 0.049075): 0.5348 | LogFC of NDUAC_HUMAN (Q9UI09, GN=NDUFA12) protein (label-free proteomics, sheet DDI Prot, p value 0.0492119): 0.6479 | LogFC of COEA1_HUMAN (Q05707, GN=COL14A1) protein (label-free proteomics, sheet DDI Prot, p value 0.0493344): 0.8788 | LogFC of RETST_HUMAN (Q6NUM9, GN=RETSAT) protein (label-free proteomics, sheet DDI Prot, p value 0.049447): 0.7532 | LogFC of PTSS1_HUMAN (P48651, GN=PTDSS1) protein (label-free proteomics, sheet DDI Prot, p value 0.0494892): 0.7741 | Direction CNOT1_HUMAN (protein A5YKK6): Down | LogFC CNOT1_HUMAN (protein A5YKK6): -0.5343 | Direction POTEM_HUMAN (protein A6NI47): Down | LogFC POTEM_HUMAN (protein A6NI47): -1.6004 | LogFC BACH_HUMAN (protein O00154 GN=ACOT7): 0.4908 | LogFC STXB3_HUMAN (protein O00186 GN=STXBP3): -0.9203 | Direction P3C2A_HUMAN (protein O00443): Down | LogFC P3C2A_HUMAN (protein O00443): -0.6873 | LogFC SDCB1_HUMAN (protein O00560 GN=SDCBP): 2.446 | Direction DDX3X_HUMAN (protein O00571): Down | LogFC DDX3X_HUMAN (protein O00571): -0.4203 | LogFC ACOD_HUMAN (protein O00767 GN=SCD): 1.2881 | Direction ARI1A_HUMAN (protein O14497): Down | LogFC ARI1A_HUMAN (protein O14497): -1.314 | LogFC TOR1A_HUMAN (protein O14656 GN=TOR1A): -0.6936 | Direction ANM5_HUMAN (protein O14744): Down | LogFC ANM5_HUMAN (protein O14744): -0.2326 | Direction CHK1_HUMAN (protein O14757): Down | LogFC CHK1_HUMAN (protein O14757): -0.9245 | LogFC GIPC1_HUMAN (protein O14908 GN=GIPC1): 1.5016 | Direction AURKA_HUMAN (protein O14965): Down | LogFC AURKA_HUMAN (protein O14965): -3.358 | Direction DEGS1_HUMAN (protein O15121): Down | LogFC DEGS1_HUMAN (protein O15121): -0.1717 | LogFC PGRC2_HUMAN (protein O15173 GN=PGRMC2): 0.7586 | LogFC ACOX3_HUMAN (protein O15254 GN=ACOX3): 1.235 | Direction OGT1_HUMAN (protein O15294): Down | LogFC OGT1_HUMAN (protein O15294): -0.4734 | Direction TM9S1_HUMAN (protein O15321): Down | LogFC TM9S1_HUMAN (protein O15321): -2.186 | LogFC TRI18_HUMAN (protein O15344 GN=MID1): 0.3983 | Direction SHIP2_HUMAN (protein O15357): Down | LogFC SHIP2_HUMAN (protein O15357): -1.6838 | Direction FANCA_HUMAN (protein O15360): Down | LogFC FANCA_HUMAN (protein O15360): -1.214 | LogFC MOT4_HUMAN (protein O15427 GN=SLC16A3): 1.9 | Direction MRP4_HUMAN (protein O15439): Down | LogFC MRP4_HUMAN (protein O15439): -0.8149 | LogFC TPSN_HUMAN (protein O15533 GN=TAPBP): -0.5526 | LogFC PSMD3_HUMAN (protein O43242 GN=PSMD3): -0.4067 | LogFC PAPS1_HUMAN (protein O43252 GN=PAPSS1): 0.7138 | Direction VIP2_HUMAN (protein O43314): Down | LogFC VIP2_HUMAN (protein O43314): -0.766 | LogFC TIM44_HUMAN (protein O43615 GN=TIMM44): -0.5983 | Direction BUD23_HUMAN (protein O43709): Down | LogFC BUD23_HUMAN (protein O43709): -2.307 | Direction AKAP8_HUMAN (protein O43823): Down | LogFC AKAP8_HUMAN (protein O43823): -2.082 | Direction GTPB6_HUMAN (protein O43824): Down | LogFC GTPB6_HUMAN (protein O43824): -1.261 | Direction KIF1B_HUMAN (protein O60333): Down | LogFC KIF1B_HUMAN (protein O60333): -2 | LogFC NRP2_HUMAN (protein O60462 GN=NRP2): -0.6899 | LogFC OGA_HUMAN (protein O60502 GN=OGA): 0.8005 | LogFC RNBP6_HUMAN (protein O60518 GN=RANBP6): 1.52 | LogFC CPNE3_HUMAN (protein O75131 GN=CPNE3): 0.4901 | LogFC HIP1R_HUMAN (protein O75146 GN=HIP1R): 2.1312 | Direction CLU_HUMAN (protein O75153): Down | LogFC CLU_HUMAN (protein O75153): -0.6987 | Direction MPU1_HUMAN (protein O75352): Down | LogFC MPU1_HUMAN (protein O75352): -0.8716 | Direction ENTP6_HUMAN (protein O75354): Down | LogFC ENTP6_HUMAN (protein O75354): -1.463 | LogFC MTX2_HUMAN (protein O75431 GN=MTX2): -0.4239 | Direction UTP20_HUMAN (protein O75691): Down | LogFC UTP20_HUMAN (protein O75691): -1.068 | Direction DNJC8_HUMAN (protein O75937): Down | LogFC DNJC8_HUMAN (protein O75937): -0.4544 | Direction TSN9_HUMAN (protein O75954): Down | LogFC TSN9_HUMAN (protein O75954): -3.176 | LogFC SRP72_HUMAN (protein O76094 GN=SRP72): -0.4411 | LogFC IPO13_HUMAN (protein O94829 GN=IPO13): 1.054 | LogFC K0754_HUMAN (protein O94854 GN=KIAA0754): -2.89 | LogFC GLSK_HUMAN (protein O94925 GN=GLS): 1.0422 | Direction SOGA1_HUMAN (protein O94964): Down | LogFC SOGA1_HUMAN (protein O94964): -1.709 | Direction UBR5_HUMAN (protein O95071): Down | LogFC UBR5_HUMAN (protein O95071): -1.078 | LogFC GBRAP_HUMAN (protein O95166 GN=GABARAP): 0.6601 | Direction KIF4A_HUMAN (protein O95239): Down | LogFC KIF4A_HUMAN (protein O95239): -2.337 | Direction GOSR1_HUMAN (protein O95249): Down | LogFC GOSR1_HUMAN (protein O95249): -1.68 | Direction KAT7_HUMAN (protein O95251): Down | LogFC KAT7_HUMAN (protein O95251): -3.074 | Direction SMC2_HUMAN (protein O95347): Down | LogFC SMC2_HUMAN (protein O95347): -0.9053 | LogFC SYFM_HUMAN (protein O95363 GN=FARS2): -0.6412 | LogFC G6PE_HUMAN (protein O95479 GN=H6PD): -1.176 | LogFC ACSL3_HUMAN (protein O95573 GN=ACSL3): 1.019 | LogFC ASML_HUMAN (protein O95671 GN=ASMTL): 3.03 | Direction STAU1_HUMAN (protein O95793): Down
